Patent US10759751B2, “Substituted spirocyclohexanes as muscarinic M1 receptor and/or M4 receptor agonists” (Heptares Therapeutics Limited, priority 2016, dated 2020)

Columns and labels:
Format in all cases: cell-based
[1] = biological target: T1, human muscarinic M3 receptor (Homo sapiens, UniProt P20309); test: Alphascreen Surefire phospho-ERK1/2 functional assay, M3; conditions: for EC50: CHO cells stably expressing human M3, phospho-ERK1/2, read-out: pEC50 M3 (converted); for Emax: CHO, read-out: M3 % Emax cf. ACh
T1 construct: expressed in transfected cells
T1 sequence (P20309 whole entry): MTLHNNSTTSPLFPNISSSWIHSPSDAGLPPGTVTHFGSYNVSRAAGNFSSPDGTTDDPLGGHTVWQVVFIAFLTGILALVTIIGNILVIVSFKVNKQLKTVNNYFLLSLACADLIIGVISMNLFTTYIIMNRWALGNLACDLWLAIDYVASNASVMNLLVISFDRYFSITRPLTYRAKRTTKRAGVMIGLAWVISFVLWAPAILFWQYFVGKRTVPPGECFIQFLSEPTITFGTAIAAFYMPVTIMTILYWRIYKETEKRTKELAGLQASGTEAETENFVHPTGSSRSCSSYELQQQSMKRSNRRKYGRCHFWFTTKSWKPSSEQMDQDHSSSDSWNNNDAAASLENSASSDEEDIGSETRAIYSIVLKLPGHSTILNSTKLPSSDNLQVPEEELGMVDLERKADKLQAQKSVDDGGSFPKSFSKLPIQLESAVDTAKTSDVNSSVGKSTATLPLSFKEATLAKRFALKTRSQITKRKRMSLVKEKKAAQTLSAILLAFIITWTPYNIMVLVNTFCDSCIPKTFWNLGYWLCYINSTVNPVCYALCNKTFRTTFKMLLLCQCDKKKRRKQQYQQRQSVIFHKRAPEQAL
In short: (§1)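 Read-out: AlphaScreen SureFire signal for phospho-ERK1/2 in lysates of stably transfected CHO cells, read after 2 h in the dark. Cells were serum-starved overnight and given agonist for 5 min at 37 °C. Values are pEC50 and Emax.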

[2] = biological target: T2, human muscarinic M1 receptor (Homo sapiens, UniProt P11229); test: Alphascreen Surefire phospho-ERK1/2 functional assay, M1; conditions: for EC50: CHO cells stably expressing human M1, phospho-ERK1/2, read-out: pEC50 M1 (converted); for Emax: CHO, read-out: M1 % Emax cf. ACh, CHO cells stably expressing human M1, Emax relative to ACh
T2 sequence (P11229 1-460): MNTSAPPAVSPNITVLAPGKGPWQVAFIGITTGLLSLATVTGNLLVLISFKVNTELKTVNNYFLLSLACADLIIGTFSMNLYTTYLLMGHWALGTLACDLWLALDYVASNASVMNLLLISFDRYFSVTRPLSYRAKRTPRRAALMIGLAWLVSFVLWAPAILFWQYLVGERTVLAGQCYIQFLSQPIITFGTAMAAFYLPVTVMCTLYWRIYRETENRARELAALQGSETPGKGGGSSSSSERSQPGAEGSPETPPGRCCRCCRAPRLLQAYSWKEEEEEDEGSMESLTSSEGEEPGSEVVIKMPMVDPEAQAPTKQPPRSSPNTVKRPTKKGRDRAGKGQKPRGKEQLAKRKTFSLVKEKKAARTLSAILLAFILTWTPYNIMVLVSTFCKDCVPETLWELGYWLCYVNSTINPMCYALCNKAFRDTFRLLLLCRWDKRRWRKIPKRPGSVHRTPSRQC
In short: as §1

[3] = biological target: T3, human muscarinic M2 receptor (Homo sapiens, UniProt P08172); test: Alphascreen Surefire phospho-ERK1/2 functional assay, M2; conditions: for EC50: CHO cells stably expressing human M2, phospho-ERK1/2, read-out: pEC50 M2 (converted); for Emax: CHO, read-out: M2 % Emax cf. ACh
T3 sequence (P08172 1-466): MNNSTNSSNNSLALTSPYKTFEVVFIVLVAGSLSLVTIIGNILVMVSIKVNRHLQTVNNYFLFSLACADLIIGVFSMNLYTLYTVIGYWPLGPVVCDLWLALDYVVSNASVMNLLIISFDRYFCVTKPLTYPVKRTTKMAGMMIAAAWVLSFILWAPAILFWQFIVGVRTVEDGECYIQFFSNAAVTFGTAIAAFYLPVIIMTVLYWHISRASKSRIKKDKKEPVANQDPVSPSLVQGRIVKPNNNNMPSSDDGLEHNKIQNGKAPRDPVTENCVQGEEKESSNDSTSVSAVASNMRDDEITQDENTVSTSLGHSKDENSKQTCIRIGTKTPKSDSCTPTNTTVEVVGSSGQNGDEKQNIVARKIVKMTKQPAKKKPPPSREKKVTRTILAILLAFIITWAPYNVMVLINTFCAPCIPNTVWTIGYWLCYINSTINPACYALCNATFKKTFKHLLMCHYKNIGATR
In short: as §1

[4] = biological target: T4, human muscarinic M4 receptor (Homo sapiens, UniProt P08173); test: Alphascreen Surefire phospho-ERK1/2 functional assay, M4; conditions: for EC50: phospho-ERK1/2, read-out: pEC50 M4 (converted); for Emax: CHO, read-out: M4 % Emax cf. ACh, CHO cells stably expressing human M4
T4 construct: expressed in transfected cells
T4 sequence (P08173 1-479): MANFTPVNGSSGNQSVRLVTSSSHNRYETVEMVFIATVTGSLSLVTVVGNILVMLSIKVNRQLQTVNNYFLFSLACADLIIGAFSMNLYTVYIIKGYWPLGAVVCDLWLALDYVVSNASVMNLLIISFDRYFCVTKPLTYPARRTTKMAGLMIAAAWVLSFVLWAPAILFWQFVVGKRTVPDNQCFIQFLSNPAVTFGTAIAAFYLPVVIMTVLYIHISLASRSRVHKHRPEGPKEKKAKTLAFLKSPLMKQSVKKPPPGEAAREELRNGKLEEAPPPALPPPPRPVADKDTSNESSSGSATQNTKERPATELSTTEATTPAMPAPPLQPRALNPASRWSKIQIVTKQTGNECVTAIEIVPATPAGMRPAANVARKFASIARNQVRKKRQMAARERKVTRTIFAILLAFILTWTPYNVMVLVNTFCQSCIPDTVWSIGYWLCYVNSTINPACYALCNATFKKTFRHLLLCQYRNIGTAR
In short: as §1

[5] = CHO cells stably expressing human M4

With `N#CC1(c2ccccc2)CCC(N2CC3(CC(c4nc(C(F)(F)F)no4)C3)C2)CC1` (single isomer, unassigned) [20-1 Isomer 2] the EC50 [1] was greater than 20000 nM, the Emax [1] was 30% and the EC50 [2] was 219 nM. It also gave an Emax [2] of 78%, an EC50 [3] greater than 20000 nM and an Emax [3] of 61%. It also gave an EC50 [4, 5] of 126 nM and an Emax ([4]; Emax relative to ACh) of 58%.
Work on `Cc1noc(C2CC3(CCN(C4CCC(C#N)(c5ccccc5F)CC4)C3)C2)n1` (single isomer, unassigned) [21-2 Isomer 3] yielded an EC50 [1] greater than 20000 nM, an Emax [1] of 15% and an EC50 [2] of 72.4 nM. For the same compound, the Emax [2] was 77%, the EC50 [3] was greater than 20000 nM and the Emax [3] was 16%. The EC50 [4, 5] was 61.7 nM and the Emax ([4]; Emax relative to ACh) was 58%.
`Cc1noc([C@@H]2CCCN(C3CCC4(CC3)C(=O)Nc3ccccc34)C2)n1` (single isomer, unassigned) [22-1 Isomer 1] showed an EC50 [1] greater than 20000 nM, an Emax [1] of 11% and an EC50 [2] of 229 nM. For the same compound, the Emax [2] was 83%, the EC50 [3] was greater than 20000 nM and the Emax [3] was 11%. It also gave an EC50 [4, 5] of 398 nM and an Emax ([4]; Emax relative to ACh) of 47%.
Compound `COc1ccc2c(c1)C1(CCC(N3CCC[C@@H](c4nc(C)no4)C3)CC1)C(=O)N2` (single isomer, unassigned) [22-2 Isomer 1] has an EC50 [1] greater than 20000 nM, an Emax [1] of 21% and an EC50 [2] of 70.8 nM. It also gave an Emax [2] of 55%, an EC50 [3] greater than 20000 nM and an Emax [3] of 12%. It also gave an EC50 [4, 5] of 537 nM and an Emax ([4]; Emax relative to ACh) of 42%.
With `Cc1ccc2c(c1)C1(CCC(N3CCC[C@@H](c4nc(C)no4)C3)CC1)C(=O)N2` (single isomer, unassigned) [22-3 Isomer 1] the EC50 [1] was greater than 20000 nM, the Emax [1] was 59% and the EC50 [2] was 123 nM. It also gave an Emax [2] of 51%, an EC50 [3] greater than 20000 nM and an Emax [3] of 17%. The EC50 [4, 5] was 141 nM and the Emax ([4]; Emax relative to ACh) was 40%.
`Cc1ccc2c(c1)NC(=O)C21CCC(N2CCC[C@@H](c3nc(C)no3)C2)CC1` (single isomer, unassigned) [22-4 Isomer 1] showed an EC50 [1] greater than 20000 nM, an Emax [1] of 17% and an EC50 [2] of 79.4 nM. The Emax [2] was 76%, the EC50 [3] was greater than 20000 nM and the Emax [3] was 20%. It also gave an EC50 [4, 5] of 219 nM and an Emax ([4]; Emax relative to ACh) of 39%.
`O=C1Nc2ccccc2C12CCC(N[C@@H]1CC[C@H](c3nc(C(F)(F)F)no3)C1)CC2` (single isomer, unassigned) [24-1 Isomer 1] was tested, and the EC50 [1] was greater than 20000 nM, the Emax [1] was 23% and the EC50 [2] was 219 nM. It also gave an Emax [2] of 89%, an EC50 [3] greater than 20000 nM and an Emax [3] of 16%. The EC50 [4, 5] was 105 nM and the Emax ([4]; Emax relative to ACh) was 62%.
Work on `CCc1noc(C2CC3(C2)CN(C2CCC4(CC2)C(=O)Nc2ccccc24)C3)n1` (single isomer, unassigned) [25-1 Isomer 1] yielded an EC50 [1] greater than 20000 nM, an Emax [1] of 6% and an EC50 [2] of 617 nM. For the same compound, the Emax [2] was 43%, the EC50 [3] was greater than 20000 nM and the Emax [3] was 13%. The EC50 [4, 5] was 155 nM and the Emax ([4]; Emax relative to ACh) was 70%.
`Cc1ccc2c(c1)C1(CCC(N3CCC4(CC(c5nc(C)no5)C4)C3)CC1)C(=O)N2` (single isomer, unassigned) [26-1 Isomer 2] gave an EC50 [1] greater than 20000 nM, an Emax [1] of 7% and an EC50 [2] of 15.1 nM. It also gave an Emax [2] of 74%, an EC50 [3] greater than 20000 nM and an Emax [3] of 22%. The EC50 [4, 5] was 40.7 nM and the Emax ([4]; Emax relative to ACh) was 50%.
`COc1ccc2c(c1)C1(CCC(N3CCC4(CC(c5nc(C)no5)C4)C3)CC1)C(=O)N2` (single isomer, unassigned) [26-2 Isomer 1] showed an EC50 [1] greater than 20000 nM, an Emax [1] of 4% and an EC50 [2] of 16.2 nM. It also gave an Emax [2] of 38%, an EC50 [3] greater than 20000 nM and an Emax [3] of 6%. The “M4 % Emax cf. ACh” value ([4]; CHO cells stably expressing human M4, Emax relative to ACh) was 35% and the EC50 [4, 5] was 81.3 nM.
With `CCc1noc(C2CC3(CCN(C4CCC5(CC4)C(=O)Nc4ccccc45)C3)C2)n1` (single isomer, unassigned) [26-3 Isomer 1] the EC50 [1] was greater than 20000 nM, the Emax [1] was 19% and the EC50 [2] was 93.3 nM. For the same compound, the Emax [2] was 31%, the EC50 [3] was greater than 20000 nM and the Emax [3] was 11%. The EC50 [4, 5] was 28.8 nM and the Emax ([4]; Emax relative to ACh) was 72%.
